Laboratory results published in PMC4053473 (Molecular cancer therapeutics, 2009).
Where no end group is shown, it is not given here.

Columns and labels:
in vivo = conditions: SCID, mouse, iv, 5 uCi, total radioactivity
H2009 cells [1] = target: T1, H2009 cells (Homo sapiens, UniProt P06756+P18564); test: Cellular uptake of labeled peptide by confocal/fluorescence microscopy; type: cell-based; conditions: for cellular uptake of peptide-Qdot conjugate (fluorescent/confocal microscopy): 20 nmol/L SAQdot605 conjugate, 10 min incubation
T1 sequence (P06756 31-1048): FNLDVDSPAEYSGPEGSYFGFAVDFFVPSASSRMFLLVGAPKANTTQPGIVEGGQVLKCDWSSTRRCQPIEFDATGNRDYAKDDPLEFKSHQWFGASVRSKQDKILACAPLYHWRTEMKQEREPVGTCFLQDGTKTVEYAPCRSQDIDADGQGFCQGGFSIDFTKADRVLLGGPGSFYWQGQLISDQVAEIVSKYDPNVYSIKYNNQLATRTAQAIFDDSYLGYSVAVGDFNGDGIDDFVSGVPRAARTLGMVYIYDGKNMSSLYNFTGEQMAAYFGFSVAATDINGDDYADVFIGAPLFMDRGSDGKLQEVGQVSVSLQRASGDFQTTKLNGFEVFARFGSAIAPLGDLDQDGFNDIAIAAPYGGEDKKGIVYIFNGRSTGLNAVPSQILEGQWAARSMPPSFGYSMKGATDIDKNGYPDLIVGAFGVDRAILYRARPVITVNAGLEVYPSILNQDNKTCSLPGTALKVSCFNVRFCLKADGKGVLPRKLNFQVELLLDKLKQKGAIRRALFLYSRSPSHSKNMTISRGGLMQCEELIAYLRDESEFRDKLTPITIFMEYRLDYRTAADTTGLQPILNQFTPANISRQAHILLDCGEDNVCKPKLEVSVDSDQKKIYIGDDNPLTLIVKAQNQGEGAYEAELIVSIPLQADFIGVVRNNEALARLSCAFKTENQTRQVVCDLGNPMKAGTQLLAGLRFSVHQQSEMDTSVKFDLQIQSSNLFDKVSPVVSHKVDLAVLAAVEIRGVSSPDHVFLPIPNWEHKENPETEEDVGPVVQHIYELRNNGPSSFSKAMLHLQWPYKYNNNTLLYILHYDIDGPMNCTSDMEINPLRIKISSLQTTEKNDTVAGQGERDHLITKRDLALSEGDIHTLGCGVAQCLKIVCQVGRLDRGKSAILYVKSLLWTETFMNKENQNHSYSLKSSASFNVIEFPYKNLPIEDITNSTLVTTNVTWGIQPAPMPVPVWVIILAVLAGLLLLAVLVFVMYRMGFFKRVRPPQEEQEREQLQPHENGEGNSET
T1 sequence (P18564 22-788): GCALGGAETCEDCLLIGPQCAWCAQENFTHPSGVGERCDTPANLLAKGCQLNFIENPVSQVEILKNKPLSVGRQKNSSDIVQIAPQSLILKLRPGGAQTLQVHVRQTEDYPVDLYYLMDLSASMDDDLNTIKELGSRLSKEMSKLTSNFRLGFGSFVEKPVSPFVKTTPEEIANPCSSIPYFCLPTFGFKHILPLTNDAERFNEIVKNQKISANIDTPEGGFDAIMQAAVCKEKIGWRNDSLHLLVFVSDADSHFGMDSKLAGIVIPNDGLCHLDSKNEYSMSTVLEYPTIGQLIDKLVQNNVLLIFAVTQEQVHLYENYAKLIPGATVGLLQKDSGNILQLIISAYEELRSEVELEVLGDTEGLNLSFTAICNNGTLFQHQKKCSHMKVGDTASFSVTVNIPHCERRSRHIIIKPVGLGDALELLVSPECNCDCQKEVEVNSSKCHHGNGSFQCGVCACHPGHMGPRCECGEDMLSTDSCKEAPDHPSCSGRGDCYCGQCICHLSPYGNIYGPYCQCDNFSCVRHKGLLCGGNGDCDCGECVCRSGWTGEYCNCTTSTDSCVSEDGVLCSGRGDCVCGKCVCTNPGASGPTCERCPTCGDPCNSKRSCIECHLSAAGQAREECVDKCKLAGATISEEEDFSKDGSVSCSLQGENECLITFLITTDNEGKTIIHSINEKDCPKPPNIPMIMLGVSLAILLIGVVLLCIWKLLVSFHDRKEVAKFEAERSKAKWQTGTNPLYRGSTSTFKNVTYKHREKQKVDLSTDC

αvβ6 = conditions: cited from earlier work
H2009 cells [2] = target: T1, H2009 cells; test: Peptide blocking of cognate H2009.1 phage uptake on H2009 cells; type: cell-based; conditions: Fig. 2B, 2D, Supplementary Data

Molecule | cellular uptake of peptide-Qdot conjugate (fluorescent/confocal microscopy) (H2009 cells [1]) | ability to block phage uptake / binding affinity for H2009 cells (in words) (H2009 cells [2]) | other results
CC(C)C[C@H](NC(=O)[C@H](CCC(N)=O)NC(=O)[C@H](CCCNC(=N)N)NC(=O)[C@H](CC(C)C)NC(=O)[C@@H](NC(=O)[C@H](C)NC(=O)[C@H](CC(C)C)NC(=O)[C@H](CC(=O)O)NC(=O)CNC(=O)[C@@H](N)CCCNC(=N)N)[C@@H](C)O)C(=O)NCCOCCOCCOCCOCCOCCOCCOCCOCCOCCOCCOCCOCCC(=O)N[C@@H](CSC1CC(=O)N(CCC(=O)NCCCC[C@H](NC(=O)CCN2C(=O)CC(SC[C@H](NC(=O)CCOCCOCCOCCOCCOCCOCCOCCOCCOCCOCCOCCOCCNC(=O)[C@H](CC(C)C)NC(=O)[C@H](CCC(N)=O)NC(=O)[C@H](CCCNC(=N)N)NC(=O)[C@H](CC(C)C)NC(=O)[C@@H](NC(=O)[C@H](C)NC(=O)[C@H](CC(C)C)NC(=O)[C@H](CC(=O)O)NC(=O)CNC(=O)[C@@H](N)CCCNC(=N)N)[C@@H](C)O)C(N)=O)C2=O)C(=O)NCCCC[C@H](NC(=O)[C@H](CCCCNC(=O)CCN2C(=O)CC(SC[C@H](NC(=O)CCOCCOCCOCCOCCOCCOCCOCCOCCOCCOCCOCCOCCNC(=O)[C@H](CC(C)C)NC(=O)[C@H](CCC(N)=O)NC(=O)[C@H](CCCNC(=N)N)NC(=O)[C@H](CC(C)C)NC(=O)[C@@H](NC(=O)[C@H](C)NC(=O)[C@H](CC(C)C)NC(=O)[C@H](CC(=O)O)NC(=O)CNC(=O)[C@@H](N)CCCNC(=N)N)[C@@H](C)O)C(N)=O)C2=O)NC(=O)CCN2C(=O)CC(SC[C@H](NC(=O)CCOCCOCCOCCOCCOCCOCCOCCOCCOCCOCCOCCOCCNC(=O)[C@H](CC(C)C)NC(=O)[C@H](CCC(N)=O)NC(=O)[C@H](CCCNC(=N)N)NC(=O)[C@H](CC(C)C)NC(=O)[C@@H](NC(=O)[C@H](C)NC(=O)[C@H](CC(C)C)NC(=O)[C@H](CC(=O)O)NC(=O)CNC(=O)[C@@H](N)CCCNC(=N)N)[C@@H](C)O)C(N)=O)C2=O)C(=O)N[C@@H](CSC2CC(=O)N(CCNC(=O)CN3CCN(CC(=O)O)CCN(CC(=O)O)CCN(CC(=O)O)CC3)C2=O)C(=O)NCCC(=O)O)C1=O)C(N)=O (stereo partly shown) [111In-labeled H2009.1 peptide, metal not drawn] | – | – | tissue uptake at 4 h (in vivo): 0.84 ± 0.11 %ID/g
DALRLQGTLR [scrambled H2009.1 peptide] | No uptake | – | –
GFTTGRRGDLATIHGMNPF [A20LAP] | – | – | affinity for αvβ6 (αvβ6): low nanomolar range
RGDLATL [H2009.1 7-mer peptide] | – | retains full activity | –
RGDLATLRQL-OH | – | significantly reduced affinity | –
YAAWPASGAWTGTAPC-SAGT [H1299.2-Qdot conjugate] | no uptake | – | localization of β6 integrin after treatment with peptide-Qdot conjugate (H2009 cells [1]; 10-min incubation, fixed, permeabilized, stained for β6): β6 remains localized on the cell surface
